Laboratory results from patent publication US20240269094A1, “Treatment of canine dermatitis and skin irritation” (priority 2023, published 2024).
pEC50: −log10 of the molar value. “Also recorded” adds a separate entry of the source. Read-outs that look alike come from different tables or passages of the source.

Tests used:
TRPM8 [1] = molecular target: T1, TRPM8 (Homo sapiens, UniProt Q7Z2W7); assay: Bioassay of FEMA 4557 in TRPM8 (laboratory of Prof. Seok-Yong Lee, FIG. 4); type: cell-based
Description: (§1) FIG. 4 Bioassay of FEMA 4557 (labeled as BUDA on the graph) in TRPM8 and TRPA1. Data from the laboratory of Prof. Seok-Yong Lee at Duke University.
(§2) FIG. 4 Bioassay of FEMA 4557 (labeled as BUDA) in TRPM8 and TRPA1. Data of Prof. Seok-Yong Lee at Duke University.

TRPA1 [2] = molecular target: T2, TRPA1 (Homo sapiens, UniProt O75762); assay: Bioassay in cells transfected with TRPA1 (FIG. 4); type: cell-based
T2 construct: expressed in transfected cells
Description: as §1, §2

tongue = assay: Oral cavity screen: 15 mg of crystals on the dorsal surface of the tongue; type: in vivo, human
Experimental: In this discovery, sensory activity in the oral cavity was the first screen. The goal was to identify candidates producing unusual sensations. Test agents, prepared as 15 mg of white crystals, were placed on the dorsal surface of the tongue. The chemical structures and identifying characteristics are in Table 1. […] Related cooling agents were not freezing cold, except for WS-23.

philtrum skin = assay: Philtrum (skin) bioassay of cooling; type: in vivo, human
Experimental: FIG. 5. The philtrum bioassay. Cooling agents, prepared as a or in solution are applied to the philtrum skin. Cooling intensity is rated on a scale of 0 to 3, with 0=no changes in sensation, 1=a slight feeling of coolness, cold or tingling, 2=a clearcut feeling of coolness of cold, and 3=a robust feeling of coolness of cold. The duration of cooling was recorded until two zeroes were measured 10 min apart.
TRPM8 EC50 Receptor Assay. […] A receptor assay is a standard tool and can be done quickly. For example, in a 384-plate assay, you can easily test 10 compounds and get dose-response data. For a chemical agonist, an in vitro TRPM8 assay generates an EC50 (median effective concentration). But the quantitative correlation between the EC50 on TRPM8 and cooling sensation was vague. That is, the science was “roughly” predictive, but there was considerable uncertainty for each agonist. […] Philtrum (Skin) Assay. For cooling sensations on the skin, it is necessary to test the substance on the skin. Wei proposed the use of the skin on the philtrum as a test site for cooling activity of chemicals (FIG. 5). The test substance is dissolved in a carrier, such as solvent, gel, or ointment and applied to the philtrum, a surface area of […]. The subject records sensations on the philtrum and environs as:
The subject is given a form to record observations and instructions to mark sensations on the philtrum and environs as: 0=no changes in sensation, 1=a slight feeling of coolness, cold, or tingling, 2=a clearcut feeling of coolness or cold, and 3=a robust feeling of coolness and cold.
The intervals for measurements are usually at 5, to 15 min after application, until two successive zeros are obtained. The philtrum application site is the midline groove above the upper lip border and vermilion. The gel is placed on the philtrum with a cotton-tipped applicator up to the nasolabial folds and sometimes, but not deliberately, on the lower nostrils (subnasale). Cold receptors densely innervate the philtrum skin (FIG. 5), second only to the surfaces of the eyeball and anogenitalia. The lips also have a high density of “cold spots.” Hensel et al. mapped the cold spots on the human face (cited in Dhaka et al., 2008). In animals such as the rat the mystacial pad (nose pad with vibrissae) is abundantly labeled with TRPM8-fibers. “Cold Points” linked to single-unit neuronal discharges can be measured in experimental animals. Wei has direct experience in such experiments (Poree et al., 1989).
Dip a cotton-tipped applicator (Puritan Cotton-tipped applicators, or Q-Tips) into a reservoir bottle containing the liquid or semi-liquid (gel) test substance. The composition adhering to the cotton (about 0.1 mL) is put on the skin. The philtrum site is shown in a cartoon. A subject can practice the method in front of a mirror with a high-intensity light source. Results for test on the philtrum are in Table 8 and FIG. 5. See data in FIG. 6. Cooling agents, prepared as an 8% wt./vol. gel, was tested topically on the philtrum skin assay. The duration of cooling was recorded (min on y-axis). The startling activity of FEMA 4557, cooling for ˜3 hr, was unexpected and surprising. FEMA 3784 is also known as Cool 10 or menthoxypropanediol. […]

[3] = test system: canine dermatitis, scratching and licking; assay: Topical treatment of canine skin irritation (case studies); type: in vivo, dog
Experimental: The Applicant gave the dog's owner an airless pump dispenser containing 8% wt/vol of FEMA 4557 dispersed in 4 mg/ml of carbapol 980, formulated with 1% ethanol and 1% menthol, and instructed him to apply the gel to the skin of the dog's belly and groin.
A twelve-year-old West Highland Terrier had periodic episodes of seasonal skin allergy. […] The owner of the dog, who had access to a pharmacy, applied nystatin ointment and a potent skin steroid cream containing […].
Next, a 20% wt/vol FEMA 4557 solution, dissolved in propylene glycol, was applied to the interdigital folds of the paws with a cotton-tipped applicator (FIG. 9).

[4] = Comparison of classes of cooling agents for applications on the canine skin (grades); set-up: species or system dog; key: A = excellent; B = average; C = poor; F = does not work; conditions: grade
Description: Here are comments on grades assigned to specific classes of cooling agents (Table 3). […] The p-menthane carboxamides cover a wide range of compounds, but they are difficult for skin formulation to achieve a long duration of action. Menthol is short-acting and irritating, especially when it is near the ocular surface. The 1-dialkylphosphorylalkane known as DIPA1-7 (Cryosim-1, 1-dialkylphosphorylheptane) is an excellent skin agent, but costs are high for dermatological applications.

TRPA1 [5] = molecular target: T2, TRPA1; conditions: Johnson et al. 2018; applicant could not repeat; cited from earlier work
oral cavity = conditions: 100 ppm in 5% sucrose; scale of 0 to 9 units; Johnson, 2018; cited from earlier work
[6] = test system: canine dermatitis, scratching and licking; assay: Topical treatment of canine skin irritation (case studies); type: in vivo, dog; conditions: 32% wt/vol liquid in 1,2-propanediol, 4% ethanol, 4% l-menthol
TRPM8 [7] = molecular target: T1, TRPM8; set-up: EC50; other: Johnson, 2.2/2.2; conditions: Ref. 5 (Johnson et al., 2018); cited from earlier work
TRPM8 [8] = molecular target: T3, TRPM8 (Mus musculus, UniProt Q8R4D5); assay: TRPM8 in vitro assay, EC50 of cooling agents (published data, Table 5 / FIG. 3); type: cell-based; conditions: Behrendt et al., 4.1/44
Description: (§3) FIG. 3. Median Effective Dose (EC50) of various cooling agents in TRPM8 in vitro assay.
(§4) A receptor assay is a standard tool and can be done quickly. For example, in a 384-plate assay, you can easily test 10 compounds and get dose-response data. For a chemical agonist, an in vitro TRPM8 assay generates an EC50 (median effective concentration). But the quantitative correlation between the EC50 on TRPM8 and cooling sensation is not always clear. That is, the language of receptor identification and potency was “roughly” predictive, but there was considerable uncertainty for each agonist. […] Table 5 summarizes results on TRPM8 EC50 (see FIG. 3). The specific references for each value are: […] The full citations are listed in the References. Leffingwell. Ref. 4 gives the FEMA numbers for each compound.
(§5) FIG. 3. Median Effective Dose (EC50) of various cooling agents in TRPM8 in vitro assay. […] The Ref. No. in Table 5 are to: 1=McKemy et al., 2002; 2=Behrendt et al., 2004; 3=Bodding et al., 2007; 4=Sherkheli et al., 2010; and 5=Johnson et al., 2018.
(§6) TRPM8 EC50 Receptor Assay. […] A receptor assay is a standard tool and can be done quickly. […] But the quantitative correlation between the EC50 on TRPM8 and cooling sensation was vague. […]

TRPM8 [9] = molecular target: T3, TRPM8; conditions: Ref. 2 (Behrendt et al., 2004); cited from earlier work
TRPM8 [10] = molecular target: T1, TRPM8; assay: TRPM8 in vitro assay, EC50 of cooling agents (published data, Table 5 / FIG. 3); type: cell-based; set-up: EC50; other: Johnson, 2.2/2.2; conditions: Johnson, 2.2/2.2
Description: as §3, §4, §5, §6

TRPM8 [11] = molecular target: T4, TRPM8 (Rattus norvegicus, UniProt Q8R455); assay: as above; type: cell-based; set-up: EC50; other: Sherkheli, 196/1500; conditions: Sherkheli, 196/1500
Description: as §3, §4, §5, §6

TRPM8 [12] = molecular target: T4, TRPM8; set-up: EC50; other: Sherkheli, 196/1500; conditions: Ref. 4 (Sherkheli et al., 2010); cited from earlier work
[13] = 8% wt/vol gel with ethanol, 1,2-propanediol, carbomer and dispersing agent or 0.2% DIPA-1-7 initiator
[14] = topical liquid or gel, Table 11

T1 sequence (Q7Z2W7 whole entry, species assumed): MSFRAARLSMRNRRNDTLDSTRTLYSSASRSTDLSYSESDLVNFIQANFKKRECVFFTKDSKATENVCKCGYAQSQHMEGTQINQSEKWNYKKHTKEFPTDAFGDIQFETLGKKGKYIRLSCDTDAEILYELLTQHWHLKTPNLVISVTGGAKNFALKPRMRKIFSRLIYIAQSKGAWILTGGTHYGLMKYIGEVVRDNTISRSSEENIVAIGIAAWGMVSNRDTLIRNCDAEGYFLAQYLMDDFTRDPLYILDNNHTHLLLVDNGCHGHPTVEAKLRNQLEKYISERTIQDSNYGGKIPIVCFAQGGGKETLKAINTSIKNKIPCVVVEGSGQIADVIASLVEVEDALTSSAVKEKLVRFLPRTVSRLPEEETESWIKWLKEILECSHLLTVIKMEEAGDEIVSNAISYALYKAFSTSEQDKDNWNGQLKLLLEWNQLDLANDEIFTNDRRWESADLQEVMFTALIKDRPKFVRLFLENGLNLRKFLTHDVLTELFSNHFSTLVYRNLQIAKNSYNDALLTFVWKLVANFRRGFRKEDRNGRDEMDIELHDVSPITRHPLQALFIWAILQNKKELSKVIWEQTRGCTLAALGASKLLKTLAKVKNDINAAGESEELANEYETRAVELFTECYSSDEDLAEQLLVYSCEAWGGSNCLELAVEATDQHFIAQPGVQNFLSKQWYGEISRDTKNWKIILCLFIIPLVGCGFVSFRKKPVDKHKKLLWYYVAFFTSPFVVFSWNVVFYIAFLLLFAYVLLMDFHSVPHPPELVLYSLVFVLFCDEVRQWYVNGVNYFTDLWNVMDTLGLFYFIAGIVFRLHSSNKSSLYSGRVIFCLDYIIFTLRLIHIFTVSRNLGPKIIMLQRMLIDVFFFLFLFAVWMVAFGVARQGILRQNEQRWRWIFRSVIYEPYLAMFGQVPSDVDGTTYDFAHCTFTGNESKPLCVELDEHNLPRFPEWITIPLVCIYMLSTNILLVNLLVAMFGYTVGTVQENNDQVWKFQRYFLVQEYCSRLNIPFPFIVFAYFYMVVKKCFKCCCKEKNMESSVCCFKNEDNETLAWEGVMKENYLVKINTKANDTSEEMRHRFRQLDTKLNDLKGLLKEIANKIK
T2 sequence (O75762 whole entry, species assumed): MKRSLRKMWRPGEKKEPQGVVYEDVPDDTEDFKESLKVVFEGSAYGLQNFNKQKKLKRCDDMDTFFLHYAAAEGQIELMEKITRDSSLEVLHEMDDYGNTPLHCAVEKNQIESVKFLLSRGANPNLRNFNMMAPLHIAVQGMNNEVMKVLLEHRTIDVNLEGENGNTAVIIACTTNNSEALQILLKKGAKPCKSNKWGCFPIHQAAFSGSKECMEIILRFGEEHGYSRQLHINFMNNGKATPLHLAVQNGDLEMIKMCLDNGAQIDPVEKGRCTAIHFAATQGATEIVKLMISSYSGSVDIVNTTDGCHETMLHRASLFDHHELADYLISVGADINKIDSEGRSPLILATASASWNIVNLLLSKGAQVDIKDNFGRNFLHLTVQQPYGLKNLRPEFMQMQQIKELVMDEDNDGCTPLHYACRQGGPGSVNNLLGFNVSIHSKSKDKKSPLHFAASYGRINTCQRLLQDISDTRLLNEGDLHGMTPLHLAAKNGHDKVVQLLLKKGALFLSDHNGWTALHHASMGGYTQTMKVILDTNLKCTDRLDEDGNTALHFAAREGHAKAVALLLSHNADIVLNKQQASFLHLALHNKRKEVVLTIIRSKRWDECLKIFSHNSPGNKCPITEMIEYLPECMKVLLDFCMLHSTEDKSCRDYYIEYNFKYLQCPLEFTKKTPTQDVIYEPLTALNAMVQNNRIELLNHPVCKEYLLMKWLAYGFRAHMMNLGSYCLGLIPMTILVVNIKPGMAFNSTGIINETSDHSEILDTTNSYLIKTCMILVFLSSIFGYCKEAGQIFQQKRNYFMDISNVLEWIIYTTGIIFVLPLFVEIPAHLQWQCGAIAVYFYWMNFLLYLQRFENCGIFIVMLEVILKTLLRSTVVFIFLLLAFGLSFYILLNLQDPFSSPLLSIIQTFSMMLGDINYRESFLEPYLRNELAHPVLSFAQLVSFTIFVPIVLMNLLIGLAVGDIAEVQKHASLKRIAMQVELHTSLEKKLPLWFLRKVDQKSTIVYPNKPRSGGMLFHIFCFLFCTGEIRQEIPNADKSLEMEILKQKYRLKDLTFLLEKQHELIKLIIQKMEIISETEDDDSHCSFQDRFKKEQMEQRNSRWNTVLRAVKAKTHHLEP
T3 sequence (Q8R4D5 whole entry): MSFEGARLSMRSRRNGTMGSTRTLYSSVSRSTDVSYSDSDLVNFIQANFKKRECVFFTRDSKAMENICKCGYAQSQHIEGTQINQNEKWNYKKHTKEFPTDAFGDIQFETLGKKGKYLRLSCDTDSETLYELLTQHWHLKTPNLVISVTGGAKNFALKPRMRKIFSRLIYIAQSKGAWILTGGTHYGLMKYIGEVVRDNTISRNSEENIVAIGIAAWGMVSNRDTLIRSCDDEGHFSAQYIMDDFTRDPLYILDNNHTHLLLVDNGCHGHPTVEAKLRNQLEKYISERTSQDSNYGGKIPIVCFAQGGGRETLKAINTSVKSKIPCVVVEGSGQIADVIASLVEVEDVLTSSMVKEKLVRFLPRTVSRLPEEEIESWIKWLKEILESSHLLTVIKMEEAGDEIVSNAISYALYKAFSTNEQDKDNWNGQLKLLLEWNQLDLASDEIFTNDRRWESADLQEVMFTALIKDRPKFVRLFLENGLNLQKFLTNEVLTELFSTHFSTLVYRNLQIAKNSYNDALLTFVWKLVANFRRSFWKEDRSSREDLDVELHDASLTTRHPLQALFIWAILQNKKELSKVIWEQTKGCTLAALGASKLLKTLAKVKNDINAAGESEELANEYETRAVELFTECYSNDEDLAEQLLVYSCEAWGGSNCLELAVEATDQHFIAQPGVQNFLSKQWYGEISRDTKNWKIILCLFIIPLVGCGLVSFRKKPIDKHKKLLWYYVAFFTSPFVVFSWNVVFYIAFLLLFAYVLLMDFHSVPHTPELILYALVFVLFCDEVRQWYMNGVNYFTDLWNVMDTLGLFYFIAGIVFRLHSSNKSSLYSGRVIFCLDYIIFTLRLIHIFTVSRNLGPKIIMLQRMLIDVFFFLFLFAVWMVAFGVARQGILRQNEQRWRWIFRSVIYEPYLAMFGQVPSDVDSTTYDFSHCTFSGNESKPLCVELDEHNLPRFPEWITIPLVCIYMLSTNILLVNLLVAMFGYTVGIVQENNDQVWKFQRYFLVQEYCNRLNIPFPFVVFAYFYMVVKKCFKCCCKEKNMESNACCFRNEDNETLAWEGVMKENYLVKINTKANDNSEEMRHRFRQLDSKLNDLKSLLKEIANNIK

CCNC(=O)C(CC)(C(C)C)C(C)C [FEMA 4557, N-ethyl-2,2-diisopropylbutanamide]
EC50 potency relative to l-menthol (TRPM8 [1]; FIG. 4): about 1/30 | pEC50 (TRPM8 [1]; FIG. 4, estimated): 3.39 | activity on TRPM8 as % of the activity of l-menthol (TRPM8 [1]; further experiments by the applicant): 10% | potency relative to menthol (TRPM8 [1]; tests by Prof Lee (FIG. 4)): < 0.1 | activity on TRPA1 (TRPA1 [2]): absence of activity; also recorded: not active | Effects of 15 mg on tongue: duration (tongue): > 35 min | Effects of 15 mg on tongue: sensation (tongue): stinging, freezing, and painful cold on the throat; also recorded: stinging, painful freezing cold in throat | Effects of 15 mg on tongue: sensation (tongue; listed as 4557): stinging, painful cold | average time of cooling (philtrum skin; 8% concentration): ≥ 175 min | Duration of cooling (philtrum skin; 8% wt./vol. gel, FIG. 6): ~3 h | Comments: quality of sensation on philtrum skin (philtrum skin; 8% wt/vol): icy cold sensations, prolonged cooling, | duration of effect of topical gel (philtrum skin; [13]): ≥ 3 h | onset of topical gel (philtrum skin; [13]): less than 3 min | Duration of cooling (philtrum skin; 8% wt/vol on philtrum): 180+ min | total therapeutic duration (philtrum skin; 16 to 32%): at least 6 hr | after effect: further cooling on the skin (philtrum skin; 16 to 32%, revealed by warm towel): 3 h | cooling duration compared to menthol (philtrum skin; >180/25): > 7 fold | Duration-Skin (philtrum skin; Wei, Table 6, see FIG. 6): 3+ Hours | Duration of cooling (philtrum skin; concentrations ≥5%, FIG. 7): ≥ 1 h | skin tissue irritation or inflammation (philtrum skin; concentrations ≥5%, up to 50% wt/vol): not observed or detected | average time of cooling (philtrum skin; first concentration of '2.4 and 8%' (2%)): 50 min | effective concentration for topical activity on the skin (philtrum skin; in vivo): ≥ 5% | average time of cooling (philtrum skin; second concentration of '2.4 and 8%' (4%)): 95 min | Duration of cooling (philtrum skin; single dose of the 16 to 32% solution): ~3 h | sensation on the philtrum (philtrum skin; solution at ≥64%): pleasant and robust cool | adverse sensations of stinging cold (philtrum skin; solution at ≥64% on the philtrum): No cold stinging sensations were felt | tolerability on the skin (philtrum skin; solutions of ≥32%): well-tolerated | Onset (philtrum skin; [14]): ~10 min | scratching and licking ([3]; Study 2, Dachshund, 8% wt/vol gel on belly and groin, within one day): scratching and licking were reduced | redness and swelling ([3]; Study 2, after three days of daily application of 8% gel): the redness and swelling disappeared | licking of paws ([3]; Study 3, 20% wt/vol solution in propylene glycol on interdigital folds): stopped licking its front paws | scratching ([3]; Study 3, West Highland Terrier, 8% gel on groin, hindquarters, perianal area): stopped the scratching | signs of skin discomfort ([3]; Study 3, after five days of treatment): All signs of skin discomfort disappeared | anti-itch effect of topical formulations ([3]; topical gel or solution, insect bites, dermatitis, allergies): effectively treated the itch; also recorded: anti-itch effects on flea bites and other skin | Side-effects [3, 14]: None observed | Absence of Irritancy [4]: A | Potency [4]: C | Rapid Onset [4]: B | Safety in Use [4]: A | Sufficient Duration [4]: A+ | activity on TRPA1 as reported in literature (TRPA1 [5]): activates TRPA1 | Cooling Intensity Oral Cavity Scaled (oral cavity): 3.3 | effect on scratching and rashes [6]: effective for scratching caused by bites of ectoparasites and rashes caused by yeast infection | pEC50 (TRPM8 [7]): 5.80

CNC(=O)C(C)(C(C)C)C(C)C [WS-23]
potency relative to menthol (TRPM8 EC50 ratio) (TRPM8 [8]): 0.09 | Effects of 15 mg on tongue: duration (tongue): ~18 min | Effects of 15 mg on tongue: sensation (tongue): painful cold in throat | Duration of cooling (philtrum skin; 8% wt/vol on philtrum): 0.417 ± 0.05 h | pEC50 (TRPM8 [9]): 4.36 | Cooling Intensity Oral Cavity Scaled (oral cavity): 2.25 | potency relative to menthol (TRPM8 EC50 ratio) (TRPM8 [10]): 1 | potency relative to menthol (TRPM8 EC50 ratio) (TRPM8 [11]): 0.13 | pEC50 (TRPM8 [7]): 5.66 | pEC50 (TRPM8 [12]): 2.82
